Key:
[1] = target: T1, scanMAX Kinase assay panel (Homo sapiens, UniProt P29320); experiment: Kinase selectivity, scanMAX Kinase assay panel (DiscoverX), % control at 1 uM; assay type: binding; conditions: EPHA3; 1 uM; read-out: Percent Control (%)
T1 construct: purchased DiscoverX
T1 sequence (P29320 21-983): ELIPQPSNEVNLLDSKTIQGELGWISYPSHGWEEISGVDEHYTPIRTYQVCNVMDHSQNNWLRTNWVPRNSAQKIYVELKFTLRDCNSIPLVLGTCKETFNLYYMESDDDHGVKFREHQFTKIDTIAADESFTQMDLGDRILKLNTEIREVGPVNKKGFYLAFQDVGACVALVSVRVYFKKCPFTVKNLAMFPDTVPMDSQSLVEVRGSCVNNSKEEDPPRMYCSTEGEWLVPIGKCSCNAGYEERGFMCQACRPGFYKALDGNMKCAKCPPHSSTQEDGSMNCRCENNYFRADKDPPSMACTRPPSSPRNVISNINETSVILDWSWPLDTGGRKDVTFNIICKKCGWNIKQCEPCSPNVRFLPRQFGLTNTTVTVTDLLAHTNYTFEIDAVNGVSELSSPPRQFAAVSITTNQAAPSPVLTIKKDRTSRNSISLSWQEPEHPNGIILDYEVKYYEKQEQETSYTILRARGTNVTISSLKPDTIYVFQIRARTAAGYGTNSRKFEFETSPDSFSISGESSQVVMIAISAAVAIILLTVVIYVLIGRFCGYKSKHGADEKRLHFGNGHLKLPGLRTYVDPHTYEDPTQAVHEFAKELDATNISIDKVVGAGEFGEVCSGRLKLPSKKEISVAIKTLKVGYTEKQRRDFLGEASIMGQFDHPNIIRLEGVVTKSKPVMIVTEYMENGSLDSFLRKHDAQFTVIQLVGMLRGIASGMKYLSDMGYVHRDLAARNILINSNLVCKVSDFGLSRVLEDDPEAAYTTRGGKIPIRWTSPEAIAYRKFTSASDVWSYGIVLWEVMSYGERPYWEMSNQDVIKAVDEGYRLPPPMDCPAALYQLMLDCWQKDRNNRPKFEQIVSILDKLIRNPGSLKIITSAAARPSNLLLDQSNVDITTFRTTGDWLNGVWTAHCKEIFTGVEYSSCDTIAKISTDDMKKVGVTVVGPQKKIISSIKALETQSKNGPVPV
Outline: (§1)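 Read-out is percent of control, derived from the signal with compound relative to positive and negative controls: (compound − positive)/(negative − positive) × 100. Each enzyme received test drug at 1 uM in DMSO, and values under 35% count as active.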

[2] = target: T2, scanMAX Kinase assay panel (Homo sapiens, UniProt Q6ZN16); experiment: as above; assay type: binding; conditions: MAP3K15; 1 uM; read-out: Percent Control (%)
T2 construct: purchased DiscoverX
T2 sequence (Q6ZN16 1-1313): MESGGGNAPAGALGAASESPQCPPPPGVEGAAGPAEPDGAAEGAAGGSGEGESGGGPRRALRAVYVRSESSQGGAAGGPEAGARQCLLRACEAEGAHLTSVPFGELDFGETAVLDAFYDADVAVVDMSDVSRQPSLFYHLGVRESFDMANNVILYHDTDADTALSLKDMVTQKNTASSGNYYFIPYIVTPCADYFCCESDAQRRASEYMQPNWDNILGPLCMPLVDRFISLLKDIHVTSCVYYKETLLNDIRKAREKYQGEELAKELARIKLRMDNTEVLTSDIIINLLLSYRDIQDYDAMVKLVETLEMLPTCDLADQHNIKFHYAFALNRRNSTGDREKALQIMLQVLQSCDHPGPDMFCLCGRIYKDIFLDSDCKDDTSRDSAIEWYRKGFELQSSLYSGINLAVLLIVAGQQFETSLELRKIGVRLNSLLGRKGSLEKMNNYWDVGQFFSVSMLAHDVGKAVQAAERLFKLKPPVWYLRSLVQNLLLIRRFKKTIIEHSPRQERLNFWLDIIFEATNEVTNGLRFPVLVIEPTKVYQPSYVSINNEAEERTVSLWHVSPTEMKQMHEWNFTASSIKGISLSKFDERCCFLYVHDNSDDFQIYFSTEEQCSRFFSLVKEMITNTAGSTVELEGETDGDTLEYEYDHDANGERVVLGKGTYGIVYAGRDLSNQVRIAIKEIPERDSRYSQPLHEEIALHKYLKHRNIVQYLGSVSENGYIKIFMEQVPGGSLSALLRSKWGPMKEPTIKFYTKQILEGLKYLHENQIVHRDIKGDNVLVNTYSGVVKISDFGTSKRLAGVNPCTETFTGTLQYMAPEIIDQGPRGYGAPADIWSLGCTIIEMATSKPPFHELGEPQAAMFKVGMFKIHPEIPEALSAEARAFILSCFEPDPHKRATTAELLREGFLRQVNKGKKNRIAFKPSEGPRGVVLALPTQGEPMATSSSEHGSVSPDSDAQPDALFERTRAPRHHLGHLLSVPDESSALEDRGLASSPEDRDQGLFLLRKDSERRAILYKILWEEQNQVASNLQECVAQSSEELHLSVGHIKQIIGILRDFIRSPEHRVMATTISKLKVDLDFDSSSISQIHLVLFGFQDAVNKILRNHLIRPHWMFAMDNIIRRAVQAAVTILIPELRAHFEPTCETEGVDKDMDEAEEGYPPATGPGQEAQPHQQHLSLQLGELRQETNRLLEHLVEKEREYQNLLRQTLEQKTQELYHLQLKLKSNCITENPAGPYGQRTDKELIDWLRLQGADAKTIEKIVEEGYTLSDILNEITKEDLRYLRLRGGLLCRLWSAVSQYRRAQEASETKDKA
Outline: as §1

| SMILES | remaining binding at 1 µM [1] | remaining binding at 1 µM [2] |
| --- | --- | --- |
| Cc1ccc(C(=O)Nc2ccc(CN3CCN(C)CC3)c(C(F)(F)F)c2)cc1C#Cc1cnc2c(Nc3cnn(C)c3)cccn12 [Example 1, 4-methyl-3-((8-((1-methyl-1H-pyrazol-4-yl)amino)imidazo[1,2-a]pyridin-3-yl)ethynyl)-N-(4-((4-methylpiperazin-1-yl)methyl)-3-(trifluoromethyl)phenyl)benzamide] | 19% | 72% |
| Cc1cn(-c2cc(NC(=O)c3ccc(C)c(C#Cc4cnc5c(Nc6cnn(C)c6)cccn45)c3)cc(C(F)(F)F)c2)cn1 [Example 12, 4-methyl-N-(3-(4-methyl-1H-imidazol-1-yl)-5-(trifluoromethyl)phenyl)-3-((8-((1-methyl-1H-pyrazol-4-yl)amino)imidazo[1,2-a]pyridin-3-yl)ethynyl)benzamide] | 27% | 100% |
| Cc1ccc(NC(=O)C2(C(=O)Nc3ccc(F)cc3)CC2)cc1C#Cc1cnc2c(Nc3cnn(C(C)C)c3)cccn12 [Example 78] | 76% | 98% |

— patent publication US10870647B2, “Imidazopyridine derivative, method for preparing same, and pharmaceutical composition containing same as active ingredient for preventing or treating cancer” (DAEGU-GYEONGBUK MEDICAL INNOVATION FOUNDATION, priority 2016, dated 2020)
